Assay results taken from patent US12594284B2, “Combination of micronutrients to stimulate the endogenous production of hydrogen sulfide (H2S)” (priority 2020, dated 2026).

How the values were obtained:
[1] = tested on: endogenous production of H2S (CBS, CSE, 3MST); assay: Inventor's observations on administration of the micronutrients to humans (H2S production markers, redox, homocysteine, insulin resistance); format: in vivo, human; settings: for triggering of the H2S system by form of vitamin B6: subjects possibly with genetic weakness of vitamin B6 activation and recycling
[2] = tested on: reductive stress; assay: Reductive stress induced by vitamin C in healthy male subjects (plasma NADH, erythrocyte GSH); format: in vivo, human; settings: vitamin C 2 gr per day alone, 1 week
Source text: Vitamin C caused a subclinical reductive stress as reported by a 40% increase of plasma NADH and 31% and 63% increase of erythrocyte GSH and GSH to GSSG ratio, respectively. […] Thus, the aforementioned composition prevented the reductive stress induced by a powerful reducing agent.

[3] = tested on: blood pressure of pre-hypertensive patients; settings: cited from earlier work
[4] = tested on: endogenous production of H2S (CBS, CSE, 3MST); settings: subjects with chronically low-vitamin B6 status; cited from earlier work
[5] = vitamin B6 added to taurine and L-cystine supplementation
[6] = taurine added to L-cystine supplementation
[7] = taurine 1.6 gr per day, 12 weeks

## Cc1ncc(COP(=O)(O)O)c(C=O)c1O [pyridoxal-5-phosphate]
[1]
  triggering of the H2S system by form of vitamin B6: responded normally

## N[C@@H](CS)C(=O)O [cysteine]
[1]; isolated cysteine administration
  H2S levels: fail to increase H2S levels

## Cc1ncc(CO)c(CO)c1O.Cl [vitamin B6]
[1]; supra-physiological amounts of vitamin B6
  CSE activity: effective in activating CSE activity
[1]; [5]
  daily amounts that do not produce any further added effect: > 100 mg
  daily dose at which increased H2S production compared to L-cystine and taurine is already measured: 2 mg per day

## O=C1O[C@H]([C@@H](O)CO)C(O)=C1O [Vitamin C, vitamin C]
[2]
  increase of GSH to GSSG ratio: 63%
  increase of erythrocyte GSH: 31%
  increase of plasma NADH: 40%

## NCCS(=O)(=O)O [taurine]
[1]; [6]
  daily amounts that do not produce any further added effect: > 2000 mg
  daily dose at which increased H2S production compared to L-cystine alone is already measured: 100 mg per day
[3]; human, in vivo
  expression of CBS and CSE: induced the expression of CBS and CSE
[3]; [7]
  circulating H2S: increase of circulating H2S
  reduction of diastolic blood pressure: 3.4 mm Hg
  reduction of systolic blood pressure: 4.6 mm Hg

## Cc1ncc(CO)c(CO)c1O [pyridoxine, reference compound]
[1]
  triggering of the H2S system by form of vitamin B6: failed to trigger the system in some subjects
[4]
  plasma concentrations of lanthionine and homolanthionine: did not respond
